Literature values in patent US8754079B2, “Cycloalkyl containing thienopyrimidines for pharmaceutical compositions” (Boehringer Ingelheim International GmbH, priority 2010, dated 2014).

Tested on: Mnk2 (Mnk2a or Mnk2b) or Mnk1
Details: addition to cell culture cells transfected with Mnk2 (Mnk2a or Mnk2b) or Mnk1; cited from earlier work

Nc1ncnc2n[nH]c(Nc3ccc(F)cc3)c12 [CGP57380]
reduction of phosphorylated eIF4E: strong reduction
